Assay results: publication PMC10643123, “Integrated chemical and genetic screens unveil FSP1 mechanisms of ferroptosis regulation” (Nature Structural & Molecular Biology, 2023)
Like-named read-outs stand apart in the source and are kept apart here.

Experiments:
hFSP1 (human FSP1) = target: T1, hFSP1 (human FSP1) (Homo sapiens, UniProt Q9BRQ8); assay: resazurin reduction, fluorescence; type: biochemical
T1 construct: gene AIFM2; recombinant from E. coli BL21, Ni-NTA purified (His tag implied); HA-tagged in Pfa1 cells for cell assays; cDNA carries C>T:1008 (probably silent)
T1 sequence (Q9BRQ8 2-373): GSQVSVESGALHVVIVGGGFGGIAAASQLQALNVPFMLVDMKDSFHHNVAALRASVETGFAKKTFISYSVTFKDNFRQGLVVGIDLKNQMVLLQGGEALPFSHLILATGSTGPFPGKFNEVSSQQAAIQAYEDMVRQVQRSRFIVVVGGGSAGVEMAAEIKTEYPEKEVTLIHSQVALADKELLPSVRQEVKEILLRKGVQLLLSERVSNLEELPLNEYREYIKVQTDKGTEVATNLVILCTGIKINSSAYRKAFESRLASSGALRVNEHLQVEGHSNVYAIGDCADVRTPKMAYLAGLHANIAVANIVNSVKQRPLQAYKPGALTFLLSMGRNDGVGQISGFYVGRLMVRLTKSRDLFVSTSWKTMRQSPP

mFsp1 (mouse FSP1) = target: T2, mFsp1 (mouse FSP1) (Mus musculus, UniProt Q8BUE4); assay: resazurin reduction, fluorescence; type: biochemical
T2 construct: gene Aifm2; recombinant from E. coli BL21, Ni-NTA purified; HA-tagged, codon-optimized in Pfa1 cells for cell assays
T2 sequence (Q8BUE4 2-373): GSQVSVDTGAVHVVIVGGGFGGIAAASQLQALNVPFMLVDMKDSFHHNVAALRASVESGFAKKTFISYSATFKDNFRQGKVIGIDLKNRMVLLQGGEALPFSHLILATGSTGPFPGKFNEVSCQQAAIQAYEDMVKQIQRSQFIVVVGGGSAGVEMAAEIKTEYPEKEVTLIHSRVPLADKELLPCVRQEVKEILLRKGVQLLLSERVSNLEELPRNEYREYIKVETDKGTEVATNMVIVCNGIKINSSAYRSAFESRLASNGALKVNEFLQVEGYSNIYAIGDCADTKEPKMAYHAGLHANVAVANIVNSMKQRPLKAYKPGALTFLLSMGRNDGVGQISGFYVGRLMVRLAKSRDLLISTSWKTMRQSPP
Source text: resazurin reduction, fluorescence on mFsp1 (mouse FSP1) | both hFSP1 and mFsp1 enzyme activity are equally sensitive to viFSP1

IC50 (hFSP1 (human FSP1); read-out: IC50) | IC50 (mFsp1 (mouse FSP1)) | SMILES | IC50 (hFSP1 (human FSP1); […] NADH, […] resazurin, TBS, […] C)
 |  | Cc1ccc(-c2c(C#N)c(N)n3c(nc4ccccc43)c2C#N)cc1 [iFSP1] | dose–response curves for the effect of iFSP1 on the activity of FSP1 mutants
0.034 µM | 0.083 µM | COc1ccc(N2CC(=O)C(c3nc(C)cs3)=C2N)c(OC)c1 [viFSP1] | 
